Assay results: patent US20240174662A1, “SMALL MOLECULE INHIBITORS OF SALT INDUCIBLE KINASES” (Janssen Biotech, Inc., priority 2021, published 2024)

Target: SIK2 (Homo sapiens (Human), UniProt Q9H0K1)
Assay: SIK2 Enzymatic Assay Version 2 (High ATP)
Assay type: biochemical
Conditions: 3 mM ATP and 200 μM HDAC5tide final, ADP-Glo Max luminescence
Summary of the method: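 Run at room temperature; SIK2 enzyme at 6 nM (2× final) preincubated with compound 30 min before reaction. ADP formation detected by ADP-Glo Max (2 h reagent, 1 h detection) with luminescence read-out.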

Chain of SIK2 (Q9H0K1 whole entry, species assumed): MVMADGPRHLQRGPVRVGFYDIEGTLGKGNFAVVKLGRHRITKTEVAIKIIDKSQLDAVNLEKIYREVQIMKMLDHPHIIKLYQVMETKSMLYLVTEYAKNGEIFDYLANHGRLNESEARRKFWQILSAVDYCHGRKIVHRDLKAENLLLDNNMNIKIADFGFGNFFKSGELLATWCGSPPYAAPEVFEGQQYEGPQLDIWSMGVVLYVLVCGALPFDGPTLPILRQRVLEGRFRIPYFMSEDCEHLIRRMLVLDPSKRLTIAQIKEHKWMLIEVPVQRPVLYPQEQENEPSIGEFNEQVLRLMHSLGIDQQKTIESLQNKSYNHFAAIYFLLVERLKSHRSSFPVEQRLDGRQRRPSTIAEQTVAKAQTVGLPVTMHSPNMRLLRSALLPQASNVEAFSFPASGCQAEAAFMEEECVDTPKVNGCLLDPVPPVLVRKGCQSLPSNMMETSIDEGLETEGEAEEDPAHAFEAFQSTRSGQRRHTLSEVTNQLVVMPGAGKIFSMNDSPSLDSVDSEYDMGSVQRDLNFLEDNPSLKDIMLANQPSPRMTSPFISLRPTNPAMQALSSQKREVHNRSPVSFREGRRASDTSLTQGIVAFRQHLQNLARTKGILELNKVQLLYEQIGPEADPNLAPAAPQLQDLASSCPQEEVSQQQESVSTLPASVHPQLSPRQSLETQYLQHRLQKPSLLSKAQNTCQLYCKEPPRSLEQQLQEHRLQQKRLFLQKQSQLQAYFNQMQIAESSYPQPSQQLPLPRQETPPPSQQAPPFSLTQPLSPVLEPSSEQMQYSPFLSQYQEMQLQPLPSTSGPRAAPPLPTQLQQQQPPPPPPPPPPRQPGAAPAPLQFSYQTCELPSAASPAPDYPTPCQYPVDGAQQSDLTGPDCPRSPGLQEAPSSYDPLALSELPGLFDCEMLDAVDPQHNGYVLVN

IC50 | Structure (SMILES)
143 nM | CN1CC[C@H](Oc2cnn(C(F)F)c2-c2ccn3nc(NC(=O)C4CC4)cc3c2)C1 [Example 470, N-[5-[2-(difluoromethyl)-4-[(3S)-1-methylpyrrolidin-3-yl]oxy-pyrazol-3-yl]pyrazolo[1,5-a]pyridin-2-yl]cyclopropanecarboxamide]
55.8 nM | Cn1ncc(O[C@H]2CCNC2)c1-c1ccc2nc(NC(=O)C3CC3)cn2c1 [Example 471, N-[6-[2-methyl-4-[(3S)-pyrrolidin-3-yl]oxy-pyrazol-3-yl]imidazo[1,2-a]pyridin-2-yl]cyclopropanecarboxamide]
106 nM | CN1CC[C@H](Oc2cnn(C)c2-c2ccc3nc(NC(=O)C4CC4)cn3c2)C1 [Example 472, N-[6-[2-methyl-4-[(3S)-1-methylpyrrolidin-3-yl]oxy-pyrazol-3-yl]imidazo[1,2-a]pyridin-2-yl]cyclopropanecarboxamide]
51.9 nM | CN1CC[C@@H]1COc1cnn(C)c1-c1ccn2nc(NC(=O)[C@@H]3C[C@@H]3C#N)cc2c1 [Example 475, cis-2-cyano-N-[5-[2-methyl-4-[(1-methylazetidin-2-yl)methoxy]pyrazol-3-yl]pyrazolo[1,5-a]pyridin-2-yl]cyclopropanecarboxamide]
3.1 nM | CCN1CC[C@@H]1COc1cnn(C)c1-c1ccc2nc(Nc3cc(C)nc(C)n3)cn2c1 [Example 476, N-(2,6-dimethylpyrimidin-4-yl)-6-[4-[[(2R)-1-ethylazetidin-2-yl]methoxy]-2-methyl-pyrazol-3-yl]imidazo[1,2-a]pyridin-2-amine]
2.1 nM | CCN1CC[C@@H]1COc1cnn(C(F)F)c1-c1ccn2nc(Nc3ccnc(C)n3)cc2c1 [Example 477, 5-[2-(difluoromethyl)-4-[[(2R)-1-ethylazetidin-2-yl]methoxy]pyrazol-3-yl]-N-(2-methylpyrimidin-4-yl)pyrazolo[1,5-a]pyridin-2-amine]
3 nM | CCN1CC[C@@H]1COc1cnn(C(F)F)c1-c1ccn2nc(Nc3cc(C)ncn3)cc2c1 [Example 478, 5-[2-(difluoromethyl)-4-[[(2R)-1-ethylazetidin-2-yl]methoxy]pyrazol-3-yl]-N-(6-methylpyrimidin-4-yl)pyrazolo[1,5-a]pyridin-2-amine]
1.1 nM | CCN1CC[C@@H]1COc1cnn(C(F)F)c1-c1ccn2nc(Nc3cc(C)nc(C)n3)cc2c1 [Example 479, 5-[2-(difluoromethyl)-4-[[(2R)-1-ethylazetidin-2-yl]methoxy]pyrazol-3-yl]-N-(2,6-dimethylpyrimidin-4-yl)pyrazolo[1,5-a]pyridin-2-amine]
10 nM | CCN1CC[C@@H]1COc1cnn(C(F)F)c1-c1ccn2nc(Nc3ccc(C)nn3)cc2c1 [Example 480, 5-[2-(difluoromethyl)-4-[[(2R)-1-ethylazetidin-2-yl]methoxy]pyrazol-3-yl]-N-(6-methylpyridazin-3-yl)pyrazolo[1,5-a]pyridin-2-amine]
17.6 nM | CCN1CC[C@@H]1COc1cnn(C(F)F)c1-c1ccn2nc(Nc3ccnc(OC)n3)cc2c1 [Example 481, 5-[2-(difluoromethyl)-4-[[(2R)-1-ethylazetidin-2-yl]methoxy]pyrazol-3-yl]-N-(2-methoxypyrimidin-4-yl)pyrazolo[1,5-a]pyridin-2-amine]
1.8 nM | CCN1CC[C@@H]1COc1cnn(C(F)F)c1-c1ccn2nc(Nc3cncc(C)n3)cc2c1 [Example 482, 5-[2-(difluoromethyl)-4-[[(2R)-1-ethylazetidin-2-yl]methoxy]pyrazol-3-yl]-N-(6-methylpyrazin-2-yl)pyrazolo[1,5-a]pyridin-2-amine]
0.9 nM | CCN1CC[C@@H]1COc1cnn(C(F)F)c1-c1ccn2nc(Nc3cc(C)c(OC)nn3)cc2c1 [Example 483, 5-[2-(difluoromethyl)-4-[[(2R)-1-ethylazetidin-2-yl]methoxy]pyrazol-3-yl]-N-(6-methoxy-5-methyl-pyridazin-3-yl)pyrazolo[1,5-a]pyridin-2-amine]
0.9 nM | CCN1CC[C@@H]1COc1cnn(C(F)F)c1-c1ccn2nc(Nc3cc(C)c(=O)n(C)n3)cc2c1 [Example 484, 6-[[5-[2-(difluoromethyl)-4-[[(2R)-1-ethylazetidin-2-yl]methoxy]pyrazol-3-yl]pyrazolo[1,5-a]pyridin-2-yl]amino]-2,4-dimethyl-pyridazin-3-one]
1.1 nM | Cc1cc(Nc2cn3cc(-c4c(OC[C@H]5CCN5C)cnn4C)ccc3n2)nc(C)n1 [Example 485, N-(2,6-dimethylpyrimidin-4-yl)-6-[2-methyl-4-[[(2R)-1-methylazetidin-2-yl]methoxy]pyrazol-3-yl]imidazo[1,2-a]pyridin-2-amine]
13600 nM | CN1CC[C@@H](COc2cnn(CC3CC3)c2-c2ccn3nc(NC(=O)C4CC4)cc3c2)C1 [Example 489, N-[5-[2-(cyclopropylmethyl)-4-[[(3R)-1-methylpyrrolidin-3-yl]methoxy]pyrazol-3-yl]pyrazolo[1,5-a]pyridin-2-yl]cyclopropanecarboxamide]
7330 nM | CCCn1ncc(OC[C@@H]2CCN(C)C2)c1-c1ccn2nc(NC(=O)C3CC3)cc2c1 [Example 490, N-[5-[4-[[(3R)-1-methylpyrrolidin-3-yl]methoxy]-2-propyl-pyrazol-3-yl]pyrazolo[1,5-a]pyridin-2-yl]cyclopropanecarboxamide]

IC50 | Structure (SMILES)
> 50000 nM | CN1CC[C@@H](COc2cnn(Cc3ccccc3)c2-c2ccn3nc(NC(=O)C4CC4)cc3c2)C1 [Example 491, N-[5-[2-benzyl-4-[[(3R)-1-methylpyrrolidin-3-yl]methoxy]pyrazol-3-yl]pyrazolo[1,5-a]pyridin-2-yl]cyclopropanecarboxamide]
432 nM | CN1CCC(Oc2cnn(C)c2-c2ccn3nc(NC(=O)C4CC4)cc3c2)CC1 [Example 492, N-[5-[2-methyl-4-[(1-methyl-4-piperidyl)oxy]pyrazol-3-yl]pyrazolo[1,5-a]pyridin-2-yl]cyclopropanecarboxamide]
236 nM | Cc1onc(OC2CCN(C)CC2)c1-c1ccn2nc(NC(=O)C3CC3)cc2c1 [Example 493, N-[5-[5-methyl-3-[(1-methyl-4-piperidyl)oxy]isoxazol-4-yl]pyrazolo[1,5-a]pyridin-2-yl]cyclopropanecarboxamide]
424 nM | Cc1onc(OC2CN(C)C2)c1-c1ccn2nc(NC(=O)C3CC3)cc2c1 [Example 494, N-[5-[5-methyl-3-(1-methylazetidin-3-yl)oxy-isoxazol-4-yl]pyrazolo[1,5-a]pyridin-2-yl]cyclopropanecarboxamide]
995 nM | Cc1onc(OC[C@H]2COCCN2)c1-c1ccn2nc(NC(=O)C3CC3)cc2c1 [Example 496, N-[5-[5-methyl-3-[[(3R)-morpholin-3-yl]methoxy]isoxazol-4-yl]pyrazolo[1,5-a]pyridin-2-yl]cyclopropanecarboxamide]
2530 nM | Cc1onc(OC[C@@H]2COCCN2)c1-c1ccn2nc(NC(=O)C3CC3)cc2c1 [Example 497]
232 nM | Cc1onc(OC[C@@H]2CCN2C)c1-c1ccn2nc(NC(=O)C3CC3)cc2c1 [Example 498]
720 nM | CN1C[C@@H](F)[C@@H](Oc2cnn(C)c2-c2ccn3nc(NC(=O)C4CC4)cc3c2)C1 [Example 499]
431 nM | Cc1onc(OC[C@@H]2CCCN2C)c1-c1ccn2nc(NC(=O)C3CC3)cc2c1 [Example 500, N-[5-[5-methyl-3-[[(2S)-1-methylpyrrolidin-2-yl]methoxy]isoxazol-4-yl]pyrazolo[1,5-a]pyridin-2-yl]cyclopropanecarboxamide]
355 nM | Cc1onc(OC[C@@H]2CCCCN2C)c1-c1ccn2nc(NC(=O)C3CC3)cc2c1 [Example 501, N-[5-[5-methyl-3-[[(2S)-1-methyl-2-piperidyl]methoxy]isoxazol-4-yl]pyrazolo[1,5-a]pyridin-2-yl]cyclopropanecarboxamide]
1580 nM | Cc1onc(OC[C@H]2CCCCN2C)c1-c1ccn2nc(NC(=O)C3CC3)cc2c1 [Example 502, N-[5-[5-methyl-3-[[(2R)-1-methyl-2-piperidyl]methoxy]isoxazol-4-yl]pyrazolo[1,5-a]pyridin-2-yl]cyclopropanecarboxamide]
442 nM | CN1CC[C@@H]1COc1cnn(C)c1-c1ccn2nc(N)cc2c1 [Example 503, 5-[2-methyl-4-[[(2R)-1-methylazetidin-2-yl]methoxy]pyrazol-3-yl]pyrazolo[1,5-a]pyridin-2-amine]
466 nM | Cn1ncc(O[C@H]2CNC[C@H]2F)c1-c1ccn2nc(NC(=O)C3CC3)cc2c1 [Example 504, N-[5-[4-[(3S,4R)-4-fluoropyrrolidin-3-yl]oxy-2-methyl-pyrazol-3-yl]pyrazolo[1,5-a]pyridin-2-yl]cyclopropanecarboxamide]
1380 nM | CN1CCCC[C@H]1COc1cnn(C)c1-c1ccn2nc(NC(=O)C3CC3)cc2c1 [Example 505]
350 nM | Cn1ncc(OCC2(N)CC2)c1-c1ccn2nc(NC(=O)C3CC3)cc2c1 [Example 506, N-[5-[4-[(1-aminocyclopropyl)methoxy]-2-methyl-pyrazol-3-yl]pyrazolo[1,5-a]pyridin-2-yl]cyclopropanecarboxamide]
1700 nM | CN1CCCC[C@@H]1COc1cnn(C)c1-c1ccn2nc(NC(=O)C3CC3)cc2c1 [Example 507, N-[5-[2-methyl-4-[[(2R)-1-methyl-2-piperidyl]methoxy]pyrazol-3-yl]pyrazolo[1,5-a]pyridin-2-yl]cyclopropanecarboxamide]
